Experimental data published in patent publication US20210040134A1, “COMBINATIONS OF MACROLIDE COMPOUNDS AND IMMUNE CHECKPOINT INHIBITORS” (ISR IMMUNE SYSTEM REGULATION HOLDING AB (PUBL), priority 2018, published 2021).

Experiments:
human TLR2 = molecular target: T1, human TLR2 (Homo sapiens, UniProt O60603); test: TLR2 reporter assay (HEK-293-TLR, SEAP); type: cell-based; details: concentrations up to 20 uM
T1 construct: host or cells: recombinant HEK-293-TLR cell lines
Description: Samples and controls were tested in duplicate on recombinant HEK-293-TLR cell lines using a cell reporter assay at Invivogen using their standard assay conditions. These cell lines functionally over-express human TLR2 protein as well as a reporter gene which is a secreted alkaline phosphatase (SEAP). The production of this reporter gene is driven by an NFkB inducible promoter. The TLR reporter cell lines activation results are given as optical density values (OD).
20 μl of each test article were used to stimulate the hTLR2 reporter cell lines in a 200 μl of final reaction volume. Samples were tested in duplicate, with at least two concentrations tested—20 uM and 10 uM.
Compounds were tested using a TLR2 reporter assay (see general methods) that measured for stimulation of the TLR2 receptor. Stimulatory effect was measured as an increase in optical density (OD) due to release of secreted alkaline phosphatase (SEAP) and is shown in table 4: […]

[1] = test system: E. coli, S. salivarius, L. casei, B. longum, M. luteus; test: MIC assay, summary over all bacterial strains tested; type: cell-based; details: any of the strains tested
Description: The bioactivity of macrolide compounds against 4 strains of common gut bacteria (Escherichia coli, Streptococcus salivarius subsp. salivarius, Lactobacillus casei and Bifidobacterium longum subsp. infantis) and common mammalian skin isolate Micrococcus luteus, was assessed using the Minimum Inhibitory Concentration (MIC) assay. Bacterial strains were purchased from DSMZ (Brunswick, Germany) except M. luteus which was obtained from NCIMB, and stored in 20% glycerol at −80° C. Stock solutions (100% DMSO) of positive controls (azithromycin and erythromycin), and of test compounds 1 and 2 were diluted in broth to working stock concentrations of 256 μg/ml (final assay testing concentration range 128 μg/ml to 0.00391 μg/ml). Stock solutions of all other compounds were diluted in broth to working stock concentrations of 128 μg/ml (final assay testing concentration range 64 μg/ml to 0.00195 μg/ml). Bacterial strains were cultivated in appropriate broth in an anaerobic chamber at 37° C., except for M. luteus which was incubated aerobically at 37° C. 18 h cultures were diluted in broth to an OD595 of 0.1 and then further diluted 1:10. In 96-well plates, in duplicate, 200 μl working stock of test compound was transferred to well 1 and serially diluted (1:2) in broth. 100 μl bacterial suspension was aliquoted into each well and mixed thoroughly. Appropriate sterility controls were included and plates were incubated in an anaerobic chamber, or aerobically (M. luteus) at 37° C. for 18 h. The MIC was determined to be the concentration of test compound in the first well with no visible growth.

[2] = Human microsome stability assay; type: in vitro ADME; details: pH 7.4, human liver microsomes, read-out: T½
Description: Rate of metabolism in microsomes was tested as follows:
Human liver microsomes were diluted with buffer C (0.1 M Potassium Phosphate buffer, 1.0 mM EDTA, pH 7.4) to a concentration of […]. Microsomal stability studies were carried out by adding 30 μL of 1.5 μM compound spiking solution to wells (1.5 μL of 500 μM spiking solution (10 μL of 10 mM DMSO stock solution into 190 μL ACN to eventually generate final test concentration of 1 uM) and 18.75 μL of 20 mg/mL liver microsomes into 479.75 μL of Buffer C). All samples were pre-incubated for approximately 15 minutes at 37° C. Following this, the reaction was initiated by adding 15 μL of the NADPH solution (6 mM) with gentle mixing. Aliquots (40 μL) were removed at 0, 5, 15, 30 and 45 minutes and quenched with ACN containing internal standard (135 μL). Protein was removed by centrifugation (4000 rpm, 15 min) and the sample plate analysed for compound concentration by LC-MS/MS. Half-lives were then calculated by standard methods, comparing the concentration of analyte with the amount originally present.
The metabolic stability of the compounds of the invention was assessed in a standard human microsome stability assay (see general methods).

[3] = Caco-2 bidirectional permeability assay; type: in vitro ADME; details: human, Caco-2; B to A permeability divided by A to B permeability
Description: (§1) 10 μM Test article was added to the apical (A) surface of Caco-2 cell monolayers (in HBSS buffer with 0.3% DMSO and 5 μM LY at 37 degrees C.) and compound permeation into the basolateral (B) compartment measured following 90 minutes incubation. This was also performed in the reverse direction (basolateral to apical) to investigate active transport. LC-MS/MS is used to quantify levels of both the test and standard control compounds. Efflux ratio was calculated by dividing the B to A permeability by the A to B permeability.
(§2) Drug permeability:Papp=(VA/(Area×time))×([drug]accepter/(([drug]initial,donor)×Dilution Factor)
(§3) The permeability of the compounds of the invention was assessed in a standard caco-2 bidirectional permeability assay (see general methods).

Caco-2 cell monolayers = test: Caco-2 bidirectional permeability assay; type: in vitro ADME; details: Caco-2, 10 μM test article, 90 minutes
Description: as §1, §2, §3

T1 sequence (O60603 21-784): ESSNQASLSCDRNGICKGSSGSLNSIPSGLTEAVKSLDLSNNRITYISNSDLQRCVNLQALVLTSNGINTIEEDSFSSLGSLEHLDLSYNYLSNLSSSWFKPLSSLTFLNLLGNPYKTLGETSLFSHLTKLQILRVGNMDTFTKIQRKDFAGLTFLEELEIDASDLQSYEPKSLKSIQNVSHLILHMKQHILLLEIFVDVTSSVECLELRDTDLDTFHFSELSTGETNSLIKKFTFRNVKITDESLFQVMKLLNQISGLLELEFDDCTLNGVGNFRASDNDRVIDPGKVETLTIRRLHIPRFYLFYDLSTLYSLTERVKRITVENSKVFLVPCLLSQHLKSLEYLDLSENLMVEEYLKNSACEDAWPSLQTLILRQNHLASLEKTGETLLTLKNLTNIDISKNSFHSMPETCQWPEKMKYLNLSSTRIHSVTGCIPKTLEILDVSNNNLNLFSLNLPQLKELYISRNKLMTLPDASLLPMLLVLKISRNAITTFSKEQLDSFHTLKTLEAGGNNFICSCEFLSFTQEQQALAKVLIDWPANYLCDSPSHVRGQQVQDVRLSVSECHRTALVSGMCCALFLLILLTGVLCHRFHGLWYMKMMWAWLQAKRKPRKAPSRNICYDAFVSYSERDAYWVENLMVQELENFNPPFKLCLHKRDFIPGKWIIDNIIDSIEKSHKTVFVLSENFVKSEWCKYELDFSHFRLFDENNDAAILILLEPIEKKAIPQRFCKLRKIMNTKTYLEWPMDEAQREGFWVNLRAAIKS

Row | TLR2 stimulation (in words) (human TLR2) | half-life at 1 uM [2] | efflux ratio at 90 minutes, 10 μM [3] | Papp (Caco-2 cell monolayers) | Compound | antibacterial activity against the bacterial strains tested (in words) [1]
1 | little or no stimulation | 0.517 h |  |  | CC[C@H]1OC(=O)[C@H](C)[C@@H](O[C@H]2C[C@@](C)(OC)[C@@H](O)[C@H](C)O2)[C@H](C)[C@@H](O[C@@H]2O[C@H](C)C[C@H](N(C)C)[C@H]2O)[C@](C)(O)C[C@@H](C)C(=O)[C@H](C)[C@@H](O)[C@]1(C)O [Erythromycin, reference compound] | potent activity
2 |  |  |  |  | CC[C@H]1OC(=O)[C@H](C)[C@@H](O[C@H]2CC(N(C)C)[C@H](O)C(C)O2)[C@H](C)[C@@H](O)[C@](C)(O)C[C@@H](C)CN(C)[C@H](C)[C@@H](O)[C@H]1C (some centres unmarked) [Compound 4] | no antibacterial activity
3 | little or no stimulation | 4.08 h | > 78 | <0.14 × 10^6/cm · s^−1 | CC[C@H]1OC(=O)[C@H](C)[C@@H](O[C@H]2C[C@@](C)(OC)[C@@H](O)[C@H](C)O2)[C@H](C)[C@@H](O[C@@H]2O[C@H](C)C[C@H](N(C)C)[C@H]2O)[C@](C)(O)C[C@@H](C)CN(C)[C@H](C)[C@@H](O)[C@]1(C)O [Azithromycin, reference compound] | potent activity
4 |  | 1.67 h |  |  | CC(O)[C@H]1OC(=O)[C@H](C)[C@@H](O[C@H]2C[C@@H](N(C)C)[C@H](O)[C@@H](C)O2)[C@H](C)[C@@H](O)[C@](C)(O)C[C@@H](C)C(=O)[C@H](C)[C@@H](O)[C@H]1C (some centres unmarked) [Compound 9, 14-hydroxy angolosamine erythronolide B] | no antibacterial activity
5 |  | 0.933 h |  |  | CC[C@H]1OC(=O)[C@H](C)[C@@H](O[C@H]2CC(N(C)C)[C@H](O)C(C)O2)[C@H](C)[C@@H](O)[C@](C)(O)C[C@@H](C)C(O)[C@H](C)[C@@H](O)[C@H]1C (some centres unmarked) [Compound 7] | no antibacterial activity
6 | little or no stimulation |  |  |  | CC[C@H]1OC(=O)[C@H](C)[C@@H](O[C@H]2CC(N(C)C)[C@H](O)C(C)O2)[C@H](C)[C@@H](O)[C@](C)(O)C[C@@H](C)C(=O)[C@H](C)[C@@H](O)[C@H]1C (some centres unmarked) [Compound 3] | no antibacterial activity
7 |  |  |  |  | CC1O[C@@H](O[C@H]2[C@H](C)[C@@H](O)[C@](C)(O)C[C@@H](C)C(=O)[C@H](C)[C@@H](O)[C@@H](C)[C@@H](C3CCC3)OC(=O)[C@@H]2C)CC(N(C)C)[C@@H]1O (some centres unmarked) [Compound 5] | no antibacterial activity
8 |  | 1.82 h |  |  | CC[C@H]1OC(=O)[C@H](C)[C@@H](O[C@H]2CC(NC)[C@H](O)C(C)O2)[C@H](C)[C@@H](O)[C@](C)(O)C[C@@H](C)C(=O)[C@H](C)[C@@H](O)[C@H]1C (some centres unmarked) [Compound 6] | no antibacterial activity
9 |  |  |  |  | CC1O[C@@H](O[C@H]2[C@H](C)[C@@H](O)[C@](C)(O)C[C@@H](C)C(=O)[C@H](C)[C@@H](O)[C@@H](C)[C@@H](C)OC(=O)[C@@H]2C)CC(N(C)C)[C@@H]1O (some centres unmarked) [Compound 8] | no antibacterial activity

Row | Compound | TLR2 stimulation (in words) (human TLR2) | half-life at 1 uM [2] | efflux ratio at 90 minutes, 10 μM [3] | Papp (Caco-2 cell monolayers) | antibacterial activity against the bacterial strains tested (in words) [1]
10 | CC[C@H]1OC(=O)[C@H](C)[C@@H](O[C@H]2CC(N(C)C)[C@H](O)C(C)O2)[C@H](C)[C@@H](O)[C@](C)(O)C[C@@H](C)N(C)C[C@H](C)[C@@H](O)[C@]1(C)O (some centres unmarked) [Compound 17] | stimulated TLR2 at concentrations down to 10 uM |  |  |  | 
